Assay results from US9181218B2, “Compounds for improved stem cell differentiation into hepatocytes” (Hoffmann-La Roche Inc., priority 2013, dated 2015).

Test: Microarray analysis of iCell Hepatocytes treated with the compound of example 1
Format: cell-based, Human
Settings: 2 HOUR
Excerpt: iCell Hepatocytes treated with the compound of example 1 results in the up and down-regulation of a host of genes; including a kinetic effect on interferon-stimulated gene (ISGs) expression. See FIGS. 15-I and 15-II, 16-I and 16-II and 18 and Table 1.

In the case of O=C(NCc1cccc(F)c1)c1cccc2nc(-c3c(NC[C@@H](O)c4ccccc4)cc[nH]c3=O)[nH]c12 [Example 1, 2-[4-((S)-2-hydroxy-2-phenyl-ethylamino)-2-oxo-1,2-dihydro-pyridin-3-yl]-3H-benzoimidazole-4-carboxylic acid 3-fluoro-benzylamide], the “ABCA9 Raw Est Fold Change” value is reported as −4.37 and the “PCP4 Raw Est Fold Change” value is reported as −2.44.
